Data published in the supplement of paper PMC8617591.

Legend:
[1] = tested on: Mycobacterium tuberculosis Erdman (autoluminescent); assay: FIC90 (Loewe) at 90% inhibition (log2); higher = more antagonistic
Method: (§1)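 DiaMOND equipotent two-drug combination dose responses against autoluminescent M. tuberculosis Erdman in 8 in vitro models. Read-out is OD600, or luminescence for the intracellular and dormancy models, normalised to untreated wells. Hill-fit Einf, AUC25 and GRinf are potency metrics; FIC50 and FIC90 are Loewe-additivity fractional inhibitory concentrations, given as log2 (negative = synergy). Replicates are averaged.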

[2] = tested on: Mycobacterium tuberculosis Erdman (autoluminescent); assay: AUC25, normalised area under dose response up to IC25 (fraction (0-1)); higher = more potent at low dose
Method: as §1

[3] = tested on: Mycobacterium tuberculosis Erdman (autoluminescent); assay: FIC50 (Loewe) at 50% inhibition (log2); higher = more antagonistic
Method: as §1

[4] = tested on: Mycobacterium tuberculosis Erdman (autoluminescent); assay: GRinf, maximum normalised growth rate inhibition (unitless (-1 to 1)); higher = less effect (negative = killing)
Method: as §1

[5] = tested on: Mycobacterium tuberculosis Erdman (autoluminescent); assay: Einf, fitted maximum growth inhibition of combination (fraction); higher = stronger maximal inhibition
Method: as §1

CC[C@@H](CO)NCCN[C@@H](CC)CO [ethambutol] + CC(=O)NC[C@H]1CN(c2ccc(N3CCOCC3)c(F)c2)C(=O)O1 [linezolid]
Settings | AUC25, [2] | Einf, [5] | FIC50, [3] | FIC90, [1] | GRinf, [4]
in vitro model: acidic pH 5.7, time point: constant (~7 days, model-specific) | 0.0997 | 0.79 | 0.0133 | – | -0.243
in vitro model: acidic pH 5.7, time point: terminal (~4-5 doublings, model-specific) | 0.0783 | 0.957 | 1.24 | 0.495 | -0.168
in vitro model: intracellular J774, time point: constant = terminal | – | 0.948 | – | 0.585 | -0.511

Settings | AUC25, [2] | Einf, [5] | FIC50, [3] | FIC90, [1] | GRinf, [4]
in vitro model: butyrate, time point: constant (~7 days, model-specific) | 0.0872 | 0.88 | 0.492 | – | 0.121
in vitro model: butyrate, time point: terminal (~4-5 doublings, model-specific) | 0.0727 | 0.934 | 0.333 | 0.243 | 0.126
in vitro model: cholesterol 0.05 mM, time point: constant (~7 days, model-specific) | 0.151 | 0.741 | 0.049 | – | -0.189
in vitro model: cholesterol 0.05 mM, time point: terminal (~4-5 doublings, model-specific) | 0.155 | 0.952 | -0.615 | – | -0.325
in vitro model: cholesterol-high 0.2 mM, time point: constant (~7 days, model-specific) | 0.106 | 0.935 | 0.732 | – | -0.702
in vitro model: cholesterol-high 0.2 mM, time point: terminal (~4-5 doublings, model-specific) | 0.104 | 1 | 0.569 | 1.03 | -0.951
in vitro model: dormancy (butyrate + nitrate, low O2), time point: constant (~7 days, model-specific) | 0.125 | 0.811 | 0.653 | – | 0.461
in vitro model: dormancy (butyrate + nitrate, low O2), time point: terminal (~4-5 doublings, model-specific) | 0.106 | 0.943 | -0.181 | 0.335 | -0.432
in vitro model: standard 7H9 glycerol, time point: constant = terminal | 0.0844 | 0.892 | 0.485 | – | 0.15
in vitro model: valerate, time point: constant (~7 days, model-specific) | 0.091 | 0.817 | -0.233 | – | 0.187
in vitro model: valerate, time point: terminal (~4-5 doublings, model-specific) | 0.0651 | 0.909 | 0.293 | 0.0781 | 0.127

CC[C@@H](CO)NCCN[C@@H](CC)CO [ethambutol] + CO[C@H]1/C=C/O[C@@]2(C)Oc3c(C)c(O)c4c(O)c(c(/C=N/N5CCN(C6CCCC6)CC5)c(O)c4c3C2=O)NC(=O)/C(C)=C\C=C\[C@H](C)[C@H](O)[C@@H](C)[C@@H](O)[C@@H](C)[C@H](OC(C)=O)[C@@H]1C [rifapentine]
Settings | AUC25, [2] | Einf, [5] | FIC50, [3] | FIC90, [1] | GRinf, [4]
in vitro model: acidic pH 5.7, time point: constant (~7 days, model-specific) | 0.0932 | 0.893 | -0.302 | – | -0.289
in vitro model: acidic pH 5.7, time point: terminal (~4-5 doublings, model-specific) | 0.0462 | 0.985 | 0.0731 | -0.209 | -0.287
in vitro model: intracellular J774, time point: constant = terminal | – | 0.959 | – | -2.62 | -0.236

Settings | AUC25, [2] | Einf, [5] | FIC50, [3] | FIC90, [1] | GRinf, [4]
in vitro model: butyrate, time point: constant (~7 days, model-specific) | 0.0627 | 0.91 | 0.244 | – | 0.0321
in vitro model: butyrate, time point: terminal (~4-5 doublings, model-specific) | 0.0478 | 0.959 | 0.226 | -0.659 | 0.0099
in vitro model: cholesterol 0.05 mM, time point: constant (~7 days, model-specific) | 0.118 | 0.694 | 0.509 | – | -0.191
in vitro model: cholesterol 0.05 mM, time point: terminal (~4-5 doublings, model-specific) | 0.0857 | 0.889 | 0.404 | – | -0.163
in vitro model: cholesterol-high 0.2 mM, time point: constant (~7 days, model-specific) | 0.0262 | 0.944 | 0.734 | – | -0.482
in vitro model: cholesterol-high 0.2 mM, time point: terminal (~4-5 doublings, model-specific) | 0.0335 | 1 | 0.916 | 0.787 | -0.739
in vitro model: dormancy (butyrate + nitrate, low O2), time point: constant (~7 days, model-specific) | 0.103 | 0.855 | 0.28 | – | 0.366
in vitro model: dormancy (butyrate + nitrate, low O2), time point: terminal (~4-5 doublings, model-specific) | 0.119 | 0.99 | 0.137 | 0.579 | -0.485
in vitro model: standard 7H9 glycerol, time point: constant = terminal | 0.0363 | 0.939 | 0.0721 | -0.243 | -0.0574
in vitro model: valerate, time point: constant (~7 days, model-specific) | 0.0721 | 0.874 | 0.0991 | – | 0.0371
in vitro model: valerate, time point: terminal (~4-5 doublings, model-specific) | 0.034 | 0.935 | 0.275 | -0.509 | 0.0428

CC[C@@H](CO)NCCN[C@@H](CC)CO [ethambutol] + CO[C@H]1/C=C/O[C@@]2(C)Oc3c(C)c(O)c4c(O)c(c(/C=N/N5CCN(C)CC5)c(O)c4c3C2=O)NC(=O)/C(C)=C\C=C\[C@H](C)[C@H](O)[C@@H](C)[C@@H](O)[C@@H](C)[C@H](OC(C)=O)[C@@H]1C [rifampicin]
Settings | AUC25, [2] | Einf, [5] | FIC50, [3] | FIC90, [1] | GRinf, [4]
in vitro model: acidic pH 5.7, time point: constant (~7 days, model-specific) | 0.0993 | 0.914 | -0.394 | – | -0.41
in vitro model: acidic pH 5.7, time point: terminal (~4-5 doublings, model-specific) | 0.0298 | 0.979 | 0.0255 | -0.711 | -0.247
in vitro model: intracellular J774, time point: constant = terminal | – | 0.967 | – | -2.96 | -0.274

Settings | AUC25, [2] | Einf, [5] | FIC50, [3] | FIC90, [1] | GRinf, [4]
in vitro model: butyrate, time point: constant (~7 days, model-specific) | 0.0748 | 0.918 | 0.144 | – | -0.00723
in vitro model: butyrate, time point: terminal (~4-5 doublings, model-specific) | 0.0614 | 0.965 | 0.0567 | -0.897 | -0.02
in vitro model: cholesterol 0.05 mM, time point: constant (~7 days, model-specific) | 0.0842 | 0.701 | -0.298 | – | -0.173
in vitro model: cholesterol 0.05 mM, time point: terminal (~4-5 doublings, model-specific) | 0.0953 | 0.887 | 0.234 | – | -0.127
in vitro model: cholesterol-high 0.2 mM, time point: constant (~7 days, model-specific) | 0.029 | 0.952 | 0.64 | – | -0.414
in vitro model: cholesterol-high 0.2 mM, time point: terminal (~4-5 doublings, model-specific) | 0.0647 | 0.996 | 0.607 | 0.842 | -0.635
in vitro model: dormancy (butyrate + nitrate, low O2), time point: constant (~7 days, model-specific) | 0.0667 | 0.847 | -0.0202 | – | 0.407
in vitro model: dormancy (butyrate + nitrate, low O2), time point: terminal (~4-5 doublings, model-specific) | 0.067 | 0.988 | 0.236 | -0.513 | -0.164
in vitro model: standard 7H9 glycerol, time point: constant = terminal | 0.0324 | 0.894 | -0.0789 | – | 0.143
in vitro model: valerate, time point: constant (~7 days, model-specific) | 0.0519 | 0.845 | -0.00587 | – | 0.0704
in vitro model: valerate, time point: terminal (~4-5 doublings, model-specific) | 0.0294 | 0.933 | 0.0274 | -1.32 | 0.0354

CC[C@@H](CO)NCCN[C@@H](CC)CO [ethambutol] + COc1c(N2C[C@@H]3CCCN[C@@H]3C2)c(F)cc2c(=O)c(C(=O)O)cn(C3CC3)c12 [moxifloxacin]
Settings | AUC25, [2] | Einf, [5] | FIC50, [3] | FIC90, [1] | GRinf, [4]
in vitro model: acidic pH 5.7, time point: constant (~7 days, model-specific) | 0.0862 | 0.734 | -0.277 | – | -0.475
in vitro model: acidic pH 5.7, time point: terminal (~4-5 doublings, model-specific) | 0.0741 | 0.954 | 0.597 | 0.0622 | -0.293
in vitro model: intracellular J774, time point: constant = terminal | – | 0.983 | – | -1.25 | -0.327

Settings | AUC25, [2] | Einf, [5] | FIC50, [3] | FIC90, [1] | GRinf, [4]
in vitro model: butyrate, time point: constant (~7 days, model-specific) | 0.0864 | 0.923 | 0.483 | – | -0.00896
in vitro model: butyrate, time point: terminal (~4-5 doublings, model-specific) | 0.0649 | 0.968 | 0.451 | 0.0888 | -0.0343
in vitro model: cholesterol 0.05 mM, time point: constant (~7 days, model-specific) | 0.0757 | 0.731 | 0.0661 | – | -0.25
in vitro model: cholesterol 0.05 mM, time point: terminal (~4-5 doublings, model-specific) | 0.0944 | 0.944 | 0.765 | 0.527 | -0.264
in vitro model: cholesterol-high 0.2 mM, time point: constant (~7 days, model-specific) | 0.0274 | 0.942 | 0.681 | – | -0.404
in vitro model: cholesterol-high 0.2 mM, time point: terminal (~4-5 doublings, model-specific) | 0.0429 | 0.999 | 0.886 | 0.669 | -0.639
in vitro model: dormancy (butyrate + nitrate, low O2), time point: constant (~7 days, model-specific) | 0.105 | 0.833 | 0.352 | – | 0.45
in vitro model: dormancy (butyrate + nitrate, low O2), time point: terminal (~4-5 doublings, model-specific) | 0.0964 | 0.967 | -0.052 | 0.0461 | -0.155
in vitro model: standard 7H9 glycerol, time point: constant = terminal | 0.066 | 0.975 | 0.0276 | -0.116 | -0.21
in vitro model: valerate, time point: constant (~7 days, model-specific) | 0.0569 | 0.878 | 0.703 | – | -0.0437
in vitro model: valerate, time point: terminal (~4-5 doublings, model-specific) | 0.0611 | 0.955 | 0.344 | -0.489 | -0.0314
